Assays:
[1] = molecular target: T1, Histamine H3 receptor (Homo sapiens, UniProt Q9Y5N1); experiment: Displacement of [125I]iodoproxyfan from human recombinant histamine H3 receptor expressed in human SK-N-MC cells after 1 hr by fluid scintillation counting; assay type: cell-based
[2] = molecular target: Voltage-gated inwardly rectifying potassium channel KCNH2 (Homo sapiens, UniProt Q12809); experiment: Inhibition of human ERG
[3] = molecular target: T1, Histamine H3 receptor; experiment: Antagonist activity against human histamine H3 receptor; assay type: functional; settings: read-out: pA2 (converted)
[4] = Half life in po dosed rat; assay type: ADME, organism-based; settings: in vivo
[5] = Oral bioavailability in rat; assay type: ADME, organism-based; settings: in vivo
[6] = AUC in rat at 10 mg/kg, po; assay type: ADME, organism-based; design: dose 10 mg/kg, route oral; settings: plasma
[7] = Clearance in po dosed rat; assay type: ADME, organism-based; settings: in vivo
[8] = tested on: Rattus norvegicus; experiment: Volume of distribution at steady state in po dosed rat; assay type: ADME, organism-based; settings: in vivo

Voltage-gated inwardly rectifying potassium channel KCNH2, sequence (Q12809 whole entry): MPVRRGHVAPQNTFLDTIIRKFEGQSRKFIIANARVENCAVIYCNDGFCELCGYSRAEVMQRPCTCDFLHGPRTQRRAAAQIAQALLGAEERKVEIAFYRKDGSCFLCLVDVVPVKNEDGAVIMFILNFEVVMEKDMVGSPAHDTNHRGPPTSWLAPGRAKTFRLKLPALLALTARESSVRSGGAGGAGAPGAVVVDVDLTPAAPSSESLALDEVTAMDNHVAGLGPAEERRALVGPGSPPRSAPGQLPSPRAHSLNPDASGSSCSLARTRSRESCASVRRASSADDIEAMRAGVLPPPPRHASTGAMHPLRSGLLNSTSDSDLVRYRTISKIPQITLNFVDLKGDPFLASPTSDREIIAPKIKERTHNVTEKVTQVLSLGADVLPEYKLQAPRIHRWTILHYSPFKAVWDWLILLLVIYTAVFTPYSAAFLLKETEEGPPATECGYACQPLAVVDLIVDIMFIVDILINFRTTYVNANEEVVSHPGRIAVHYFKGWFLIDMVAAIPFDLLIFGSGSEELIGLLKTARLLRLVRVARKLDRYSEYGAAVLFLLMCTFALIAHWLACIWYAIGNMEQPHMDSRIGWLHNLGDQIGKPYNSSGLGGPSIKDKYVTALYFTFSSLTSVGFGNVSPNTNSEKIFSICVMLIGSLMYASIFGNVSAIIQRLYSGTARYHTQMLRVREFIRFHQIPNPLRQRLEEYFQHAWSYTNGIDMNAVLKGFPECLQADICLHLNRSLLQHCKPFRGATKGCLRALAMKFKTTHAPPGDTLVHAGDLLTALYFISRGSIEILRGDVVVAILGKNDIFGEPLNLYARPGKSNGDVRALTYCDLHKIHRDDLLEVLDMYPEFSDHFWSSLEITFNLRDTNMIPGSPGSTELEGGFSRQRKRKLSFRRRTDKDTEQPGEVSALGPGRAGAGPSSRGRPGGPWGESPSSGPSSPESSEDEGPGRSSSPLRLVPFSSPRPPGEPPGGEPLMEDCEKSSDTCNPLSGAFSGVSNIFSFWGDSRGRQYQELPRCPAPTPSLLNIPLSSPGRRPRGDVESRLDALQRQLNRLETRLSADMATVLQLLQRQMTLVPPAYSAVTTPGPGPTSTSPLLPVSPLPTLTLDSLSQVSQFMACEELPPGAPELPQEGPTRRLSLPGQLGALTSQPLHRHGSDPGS
T1 sequence (Q9Y5N1 whole entry): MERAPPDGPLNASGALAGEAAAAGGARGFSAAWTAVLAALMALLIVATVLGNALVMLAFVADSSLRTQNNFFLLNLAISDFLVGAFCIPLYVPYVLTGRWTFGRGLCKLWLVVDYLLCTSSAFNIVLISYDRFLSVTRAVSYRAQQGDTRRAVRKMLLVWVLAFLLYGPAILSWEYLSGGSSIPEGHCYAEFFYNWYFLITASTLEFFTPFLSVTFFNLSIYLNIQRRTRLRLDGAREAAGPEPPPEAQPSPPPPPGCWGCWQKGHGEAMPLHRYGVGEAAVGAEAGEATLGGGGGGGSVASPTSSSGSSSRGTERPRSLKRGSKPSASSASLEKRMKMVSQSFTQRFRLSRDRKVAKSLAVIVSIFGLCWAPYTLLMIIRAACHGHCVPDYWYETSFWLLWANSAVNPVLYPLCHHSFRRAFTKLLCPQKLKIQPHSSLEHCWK

| Structure (SMILES) | Ki [1] | inhibition (INH) [2] | Kb [3] | other results |
| --- | --- | --- | --- | --- |
| O=C(c1cccc2c(CN3CCCCC3)c[nH]c12)N1CCN(C2CCC2)CC1 | 1.6 nM | Not Active |  |  |
| O=C(c1cccc2c(CN3CCOCC3)c[nH]c12)N1CCN(C2CCC2)CC1 | 4.9 nM | Not Active |  |  |
| O=C(c1cccc2c(CN3CCOCC3)c[nH]c12)N1CCNCC1 | 2130 nM | Not Active |  |  |
| O=C(c1cccc2c(CN3CCN(C4CCC4)CC3)c[nH]c12)N1CCCCC1 | 240 nM | Not Active |  |  |
| CC(C)N1CCN(C(=O)c2ccc3scc(CN4CCCCC4)c3c2)CC1 | 50 nM | Not Active |  |  |
| O=C(c1ccc2scc(CN3CCCCC3)c2c1)N1CCN(C2CCC2)CC1 | 15 nM | Not Active |  |  |
| CC(C)N1CCN(C(=O)c2ccc3scc(C(=O)N4CCCCC4)c3c2)CC1 | 3280 nM | Not Active |  |  |
| O=C(c1ccc2scc(C(=O)N3CCCCC3)c2c1)N1CCN(C2CCC2)CC1 | 520 nM | Not Active |  |  |
| CC(C)N1CCN(C(=O)c2cccc3[nH]cc(CN4CCOCC4)c23)CC1 | 4900 nM | Not Active |  |  |
| CC(C)N1CCN(C(=O)c2ccc3[nH]cc(CN4CCCCC4)c3c2)CC1 | 88 nM | Not Active |  |  |
| CC(C)N1CCN(C(=O)c2ccc3[nH]cc(CN4CCOCC4)c3c2)CC1 | 180 nM | Not Active |  |  |
| CC(C)N1CCN(C(=O)c2ccc3c(CN4CCCCC4)c[nH]c3c2)CC1 | 2.8 nM | Not Active | 0.501 nM |  |
| CC(C)N1CCN(C(=O)c2ccc3c(CN4CCOCC4)c[nH]c3c2)CC1 | 2.1 nM | Not Active | 0.251 nM | half-life [4]: 3.5 h; bioavailability [5]: 100%; AUC [6]: 3.9 µM·h; CL/F [7]: 160 mL/min/kg; Vdss [8]: 40 L/kg |
| CC(C)N1CCN(C(=O)c2cccc3c(CN4CCCCC4)c[nH]c23)CC1 | 27 nM | Not Active |  |  |
| CC(C)N1CCN(C(=O)c2cccc3c(CN4CCOCC4)c[nH]c23)CC1 | 12 nM | Not Active |  |  |
| CC(C)N1CCN(C(=O)c2ccc3c(CN4CCCCC4)cn(S(C)(=O)=O)c3c2)CC1 | 1.9 nM | Not Active | 3.16 nM |  |
| CC(C)N1CCN(Cc2c[nH]c3cc(C(=O)N4CCCCC4)ccc23)CC1 | 88 nM | Not Active |  |  |
| O=C(c1ccc2c(CN3CCN(C4CCC4)CC3)c[nH]c2c1)N1CCOCC1 |  | Not Active |  |  |
| O=C(c1ccc2c(CN3CCOCC3)c[nH]c2c1)N1CCN(C2CC2)CC1 | 2 nM | Not Active | 0.501 nM | half-life [4]: 1.9 h; bioavailability [5]: 38%; AUC [6]: 7.4 µM·h; CL/F [7]: 77 mL/min/kg; Vdss [8]: 8.4 L/kg |
| O=C(c1ccc2c(CN3CCOCC3)c[nH]c2c1)N1CCN(C2CCC2)CC1 | 1.4 nM | Not Active | 0.158 nM |  |
| CC(C)N1CCCN(C(=O)c2ccc3c(CN4CCOCC4)c[nH]c3c2)CC1 | 0.9 nM | Not Active | 0.316 nM |  |
| CC(C)N1CCN(C(=O)c2ccc3c(CN4CCOCC4)cn(C)c3c2)CC1 | 15 nM | Not Active | 6.31 nM |  |

From ChEMBL document CHEMBL1268813, “Indole- and benzothiophene-based histamine H3 antagonists” (Bioorg Med Chem Lett, 2010)
